# Values of other authors in paper PMC11214510 (Saudi Journal of Biological Sciences, 2024).
# Test system: AChE
# Conditions: mice, long-term supplementation, 40 mg/kg; ref Kasbe et al., 2015
smiles,measurement,value
O=c1c2cc(O)c(O)cc2oc2cc(O)c([C@@H]3O[C@H](CO)[C@@H](O)[C@H](O)[C@H]3O)c(O)c12 [mangiferin],AChE expression produced by AlCl3,inhibits the expression of AChE
